According to ChEMBL document CHEMBL6120936, “Autophagy modulation in cancer therapy: Challenges coexist with opportunities” (Eur J Med Chem, 2024):

How the values were obtained:
[1] = Agonist activity at AMPK (unknown origin); design: species or system Homo sapiens
[2] = target: Mitogen-activated protein kinase 3 (Homo sapiens, UniProt P27361); assay: Inhibition of ERK1 (unknown origin)
[3] = target: T1, Serine/threonine-protein kinase ULK1 (Homo sapiens, UniProt O75385); assay: Agonist activity at ULK1 (unknown origin)
T1 sequence (O75385 whole entry): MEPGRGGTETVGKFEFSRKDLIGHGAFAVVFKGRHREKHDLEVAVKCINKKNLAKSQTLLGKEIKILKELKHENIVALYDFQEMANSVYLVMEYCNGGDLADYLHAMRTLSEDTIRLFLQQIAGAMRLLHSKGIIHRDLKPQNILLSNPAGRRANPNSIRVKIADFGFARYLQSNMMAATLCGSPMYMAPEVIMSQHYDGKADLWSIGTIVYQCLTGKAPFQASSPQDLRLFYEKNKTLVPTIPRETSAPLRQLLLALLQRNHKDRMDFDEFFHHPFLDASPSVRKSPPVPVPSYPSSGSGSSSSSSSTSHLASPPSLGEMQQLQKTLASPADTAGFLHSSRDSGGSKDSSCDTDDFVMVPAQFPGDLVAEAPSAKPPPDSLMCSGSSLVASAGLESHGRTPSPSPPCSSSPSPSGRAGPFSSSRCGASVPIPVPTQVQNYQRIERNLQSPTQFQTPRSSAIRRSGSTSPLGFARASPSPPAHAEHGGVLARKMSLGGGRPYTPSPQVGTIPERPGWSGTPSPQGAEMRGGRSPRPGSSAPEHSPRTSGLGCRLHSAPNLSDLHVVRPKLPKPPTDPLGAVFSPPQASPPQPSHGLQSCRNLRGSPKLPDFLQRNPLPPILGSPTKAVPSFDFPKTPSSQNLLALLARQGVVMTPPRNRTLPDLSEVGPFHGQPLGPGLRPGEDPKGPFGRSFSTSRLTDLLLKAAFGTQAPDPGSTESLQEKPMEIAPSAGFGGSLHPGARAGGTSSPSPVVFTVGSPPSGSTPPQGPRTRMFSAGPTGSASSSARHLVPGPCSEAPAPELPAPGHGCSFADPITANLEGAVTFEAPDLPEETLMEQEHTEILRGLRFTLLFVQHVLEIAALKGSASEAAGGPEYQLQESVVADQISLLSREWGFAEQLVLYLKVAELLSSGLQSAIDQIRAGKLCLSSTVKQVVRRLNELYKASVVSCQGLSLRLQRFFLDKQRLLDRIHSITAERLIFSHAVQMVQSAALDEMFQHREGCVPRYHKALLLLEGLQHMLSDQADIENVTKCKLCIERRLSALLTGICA

[4] = target: T2, Serine/threonine-protein kinase ULK2 (Homo sapiens, UniProt Q8IYT8); assay: Inhibition of ULK2 (unknown origin)
T2 sequence (Q8IYT8 whole entry): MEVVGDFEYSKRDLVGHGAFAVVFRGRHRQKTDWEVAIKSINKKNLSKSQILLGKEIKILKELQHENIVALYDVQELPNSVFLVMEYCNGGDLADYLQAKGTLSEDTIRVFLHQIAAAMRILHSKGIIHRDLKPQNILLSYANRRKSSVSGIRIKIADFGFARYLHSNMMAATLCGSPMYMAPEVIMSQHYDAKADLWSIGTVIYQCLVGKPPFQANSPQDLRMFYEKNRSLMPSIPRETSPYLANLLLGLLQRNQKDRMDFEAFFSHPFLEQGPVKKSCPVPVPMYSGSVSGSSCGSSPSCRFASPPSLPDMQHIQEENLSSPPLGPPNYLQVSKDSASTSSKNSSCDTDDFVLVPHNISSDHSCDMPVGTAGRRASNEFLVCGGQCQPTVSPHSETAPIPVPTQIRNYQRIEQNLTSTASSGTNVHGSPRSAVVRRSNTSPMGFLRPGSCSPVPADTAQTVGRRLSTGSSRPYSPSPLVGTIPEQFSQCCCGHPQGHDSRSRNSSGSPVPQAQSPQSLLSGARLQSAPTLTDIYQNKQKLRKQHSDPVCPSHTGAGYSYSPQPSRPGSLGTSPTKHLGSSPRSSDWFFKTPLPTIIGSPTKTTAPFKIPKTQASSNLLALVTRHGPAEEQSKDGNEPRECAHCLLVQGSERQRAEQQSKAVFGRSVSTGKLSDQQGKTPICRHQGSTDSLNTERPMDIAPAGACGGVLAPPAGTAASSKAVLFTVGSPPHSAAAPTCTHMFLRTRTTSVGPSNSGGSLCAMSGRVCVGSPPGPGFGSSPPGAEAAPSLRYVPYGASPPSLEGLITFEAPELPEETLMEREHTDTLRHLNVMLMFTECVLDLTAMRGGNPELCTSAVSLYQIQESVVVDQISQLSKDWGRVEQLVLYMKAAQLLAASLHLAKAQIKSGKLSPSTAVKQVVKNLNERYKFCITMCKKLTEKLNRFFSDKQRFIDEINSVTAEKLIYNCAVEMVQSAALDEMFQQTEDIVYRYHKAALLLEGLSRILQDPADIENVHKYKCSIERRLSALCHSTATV

[5] = target: Phosphatidylinositol 4,5-bisphosphate 3-kinase catalytic subunit alpha isoform (Homo sapiens, UniProt P42336); assay: Inhibition of PI3K-p110alpha (unknown origin) extracted from baculovirus-infected Sf9 cells incubated for 1 hr by microbeta counter analysis
[6] = target: Phosphatidylinositol 4,5-bisphosphate 3-kinase catalytic subunit gamma isoform (Homo sapiens, UniProt P48736); assay: Inhibition of PI3K p120gamma (unknown origin)
[7] = target: T3, Phosphatidylinositol 4,5-bisphosphate 3-kinase catalytic subunit delta isoform (Homo sapiens, UniProt O00329); assay: Inhibition of PI3Kdelta (unknown origin)
T3 sequence (O00329 whole entry): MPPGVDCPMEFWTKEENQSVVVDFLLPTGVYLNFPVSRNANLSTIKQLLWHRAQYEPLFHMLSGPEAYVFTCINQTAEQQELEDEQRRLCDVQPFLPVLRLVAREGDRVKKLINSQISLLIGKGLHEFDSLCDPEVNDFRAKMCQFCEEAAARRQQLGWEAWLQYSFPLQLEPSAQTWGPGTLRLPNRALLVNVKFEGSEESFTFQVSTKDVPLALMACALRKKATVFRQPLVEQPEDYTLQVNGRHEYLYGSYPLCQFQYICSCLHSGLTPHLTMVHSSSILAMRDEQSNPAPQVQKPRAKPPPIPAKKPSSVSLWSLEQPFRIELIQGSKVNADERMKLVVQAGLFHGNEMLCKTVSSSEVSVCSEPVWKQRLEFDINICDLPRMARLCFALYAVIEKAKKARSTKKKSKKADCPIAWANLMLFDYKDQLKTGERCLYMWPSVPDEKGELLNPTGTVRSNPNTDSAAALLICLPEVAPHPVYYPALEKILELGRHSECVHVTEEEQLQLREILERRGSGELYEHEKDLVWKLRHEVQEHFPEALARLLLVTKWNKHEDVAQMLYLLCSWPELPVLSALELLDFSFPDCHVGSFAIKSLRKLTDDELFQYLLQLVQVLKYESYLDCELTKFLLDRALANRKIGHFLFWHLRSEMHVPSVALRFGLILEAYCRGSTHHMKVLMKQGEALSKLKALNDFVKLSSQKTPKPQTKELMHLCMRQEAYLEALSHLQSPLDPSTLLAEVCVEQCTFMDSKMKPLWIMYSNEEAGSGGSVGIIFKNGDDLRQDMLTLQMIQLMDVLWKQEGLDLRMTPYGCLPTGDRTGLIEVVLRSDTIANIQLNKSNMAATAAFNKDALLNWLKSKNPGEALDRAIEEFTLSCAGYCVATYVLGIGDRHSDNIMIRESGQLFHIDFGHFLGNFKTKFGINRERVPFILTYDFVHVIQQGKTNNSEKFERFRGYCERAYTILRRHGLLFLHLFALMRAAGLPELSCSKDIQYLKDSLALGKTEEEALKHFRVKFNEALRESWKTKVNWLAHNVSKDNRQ

[8] = Binding affinity to AMPK (unknown origin) assessed as inhibition constant; design: species or system Homo sapiens

Phosphatidylinositol 4,5-bisphosphate 3-kinase catalytic subunit gamma isoform, sequence (P48736 whole entry, canonical isoform): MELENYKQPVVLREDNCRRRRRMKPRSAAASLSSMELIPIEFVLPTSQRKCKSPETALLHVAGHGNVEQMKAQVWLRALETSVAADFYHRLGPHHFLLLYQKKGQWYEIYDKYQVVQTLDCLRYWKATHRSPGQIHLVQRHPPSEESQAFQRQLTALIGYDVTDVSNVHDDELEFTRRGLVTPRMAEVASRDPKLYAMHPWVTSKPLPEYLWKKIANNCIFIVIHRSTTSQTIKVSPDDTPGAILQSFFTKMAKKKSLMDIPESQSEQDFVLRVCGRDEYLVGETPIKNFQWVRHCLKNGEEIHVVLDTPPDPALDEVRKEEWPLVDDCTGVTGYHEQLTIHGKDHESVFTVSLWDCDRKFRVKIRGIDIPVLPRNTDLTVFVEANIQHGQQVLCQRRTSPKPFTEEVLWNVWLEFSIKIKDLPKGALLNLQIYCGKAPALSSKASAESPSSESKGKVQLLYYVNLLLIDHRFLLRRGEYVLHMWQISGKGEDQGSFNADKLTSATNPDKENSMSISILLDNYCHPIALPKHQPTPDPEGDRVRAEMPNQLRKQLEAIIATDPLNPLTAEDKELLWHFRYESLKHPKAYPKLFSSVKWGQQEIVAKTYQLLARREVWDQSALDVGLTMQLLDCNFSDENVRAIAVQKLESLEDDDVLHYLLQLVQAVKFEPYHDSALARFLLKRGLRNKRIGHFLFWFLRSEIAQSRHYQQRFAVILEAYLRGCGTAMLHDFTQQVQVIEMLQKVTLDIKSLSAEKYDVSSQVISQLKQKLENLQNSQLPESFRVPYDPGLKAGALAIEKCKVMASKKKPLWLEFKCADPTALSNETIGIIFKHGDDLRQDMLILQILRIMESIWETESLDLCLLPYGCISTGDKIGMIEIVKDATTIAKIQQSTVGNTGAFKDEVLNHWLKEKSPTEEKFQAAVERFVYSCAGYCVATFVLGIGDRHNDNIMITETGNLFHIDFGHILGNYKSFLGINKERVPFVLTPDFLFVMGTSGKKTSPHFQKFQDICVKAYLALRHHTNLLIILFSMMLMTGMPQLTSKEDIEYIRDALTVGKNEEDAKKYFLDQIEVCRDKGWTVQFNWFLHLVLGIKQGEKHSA
Phosphatidylinositol 4,5-bisphosphate 3-kinase catalytic subunit alpha isoform, sequence (P42336 whole entry, canonical isoform): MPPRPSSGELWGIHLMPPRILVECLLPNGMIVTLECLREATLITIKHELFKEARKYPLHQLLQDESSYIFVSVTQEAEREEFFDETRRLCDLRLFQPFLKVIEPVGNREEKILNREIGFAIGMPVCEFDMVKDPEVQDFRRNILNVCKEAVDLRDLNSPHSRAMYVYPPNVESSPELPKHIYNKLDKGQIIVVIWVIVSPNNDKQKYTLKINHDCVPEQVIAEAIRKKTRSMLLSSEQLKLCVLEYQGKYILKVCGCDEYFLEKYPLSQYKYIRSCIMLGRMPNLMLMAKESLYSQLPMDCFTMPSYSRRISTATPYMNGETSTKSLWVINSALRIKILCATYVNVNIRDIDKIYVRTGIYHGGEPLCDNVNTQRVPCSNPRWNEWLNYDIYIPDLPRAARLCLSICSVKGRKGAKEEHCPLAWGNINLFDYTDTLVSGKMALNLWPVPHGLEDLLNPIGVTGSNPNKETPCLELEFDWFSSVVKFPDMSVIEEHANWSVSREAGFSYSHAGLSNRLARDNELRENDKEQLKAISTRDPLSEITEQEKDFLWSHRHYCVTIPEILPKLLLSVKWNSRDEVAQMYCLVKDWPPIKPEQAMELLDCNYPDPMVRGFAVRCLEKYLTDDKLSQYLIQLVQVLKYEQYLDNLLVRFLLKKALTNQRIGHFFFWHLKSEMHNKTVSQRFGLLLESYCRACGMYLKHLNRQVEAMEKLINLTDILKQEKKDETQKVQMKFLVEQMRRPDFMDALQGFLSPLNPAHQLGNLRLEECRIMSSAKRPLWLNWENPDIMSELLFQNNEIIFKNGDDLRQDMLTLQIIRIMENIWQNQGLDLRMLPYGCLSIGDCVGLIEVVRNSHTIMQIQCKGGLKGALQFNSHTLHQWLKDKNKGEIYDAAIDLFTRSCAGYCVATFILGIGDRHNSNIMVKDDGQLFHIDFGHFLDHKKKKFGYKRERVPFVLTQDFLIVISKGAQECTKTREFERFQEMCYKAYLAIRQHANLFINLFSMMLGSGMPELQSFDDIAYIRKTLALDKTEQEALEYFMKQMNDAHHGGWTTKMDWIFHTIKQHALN
Mitogen-activated protein kinase 3, sequence (P27361 whole entry): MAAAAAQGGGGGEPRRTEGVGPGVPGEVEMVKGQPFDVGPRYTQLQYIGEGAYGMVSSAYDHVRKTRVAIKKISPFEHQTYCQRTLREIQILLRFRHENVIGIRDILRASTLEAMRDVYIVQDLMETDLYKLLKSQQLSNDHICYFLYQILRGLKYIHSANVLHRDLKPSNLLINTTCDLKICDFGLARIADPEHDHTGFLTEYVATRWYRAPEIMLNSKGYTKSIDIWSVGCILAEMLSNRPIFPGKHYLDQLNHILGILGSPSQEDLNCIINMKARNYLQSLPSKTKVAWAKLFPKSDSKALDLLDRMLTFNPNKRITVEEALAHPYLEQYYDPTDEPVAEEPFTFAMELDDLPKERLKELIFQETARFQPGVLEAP

N#Cc1c(O)c2c(-c3ccccc3)csc2[nH]c1=O
EC50 [1]: 38000 nM

COc1ccc([C@H]2OC[C@H]3[C@@H]2CO[C@@H]3c2cc(OC)c(OC)c(OC)c2)cc1OC
IC50 [2]: 87 nM

O=C(Nc1ccc(F)cc1F)[C@H](NC(=S)Nc1cc(C(F)(F)F)cc(C(F)(F)F)c1)c1ccccc1
EC50 [3]: 24.1 nM

CCc1cc(N2CCN(C)CC2)ccc1Nc1ncc(C(F)(F)F)c(NCCCN2CCOCCC2=O)n1 [INLEXISERTIB]
IC50 [4]: 9 nM

C=CCN(/C=C1/C(=O)O[C@H](COC)[C@@]2(C)C1=C(O)C(=O)C1=C2[C@H](OC(C)=O)C[C@]2(C)C(=O)CC[C@@H]12)CC=C [SONOLISIB]
IC50 [5]: 0.1 nM | IC50 [6]: 1 nM | IC50 [7]: 2.9 nM

N#Cc1c(O)c2c(-c3ccc(-c4ccccc4O)cc3)csc2[nH]c1=O
EC50 [1]: 800 nM

CC(C)NC[C@@H](C(=O)N1CCN(c2ncnc3c2[C@H](C)C[C@H]3O)CC1)c1ccc(Cl)cc1 [IPATASERTIB]
IC50 [5]: 1400 nM

Cc1nc(-c2cn3c(n2)-c2ccc(-c4cnn(C(C)(C)C(N)=O)c4)cc2OCC3)n(C(C)C)n1 [TASELISIB]
IC50 [6]: 0.91 nM

c1cc(-c2cnn3cc(-c4ccc(OCCN5CCCCC5)cc4)cnc23)ccn1 [DORSOMORPHIN]
Ki [8]: 109 nM
